From publication PMC2556223 (Journal of biomolecular screening, 2008) come the findings set out here.

One data set deals with MV-Alaska. The data set can be described thus: Dose-response curves based on suppression of viral CPE. It counts as cell-based, measles virus.
A short description of data set [1]: Quantitative cytotoxicity assay. It counts as cell-based.
A further data set relates to CDV-752. The data set can be described thus: Dose-response CPE assay, Vero-dogSLAM cells. It counts as cell-based, canine distemper virus.
In another data set the test system is HPIV3. The data set can be described thus: Dose-response CPE assay, Vero cells. It counts as cell-based, human parainfluenzavirus type 3.
The target in data set [2] is MV H and F envelope glycoproteins (Measles virus, UniProt P08362+P69353). The data set can be described thus: cell-based.
The subject of the next data set is MV-Ibd. The data set can be described thus: Dose-response CPE assay against AS-48-resistant MV strain. Particulars: Measles morbillivirus, read-out: EC50 (MV-Ibd).
Another data set deals with cells. The data set is described as follows: Quantitative cytotoxicity assay. It is filed as cell-based.
The subject of the next data set is MV-AII-5. The data set can be described thus: Dose-response CPE assay against AS-136A-adapted MV variant. Particulars: read-out: EC50 (MV-AII-5); MV-Alaska variant adapted to grow in presence of RdRp inhibitor AS-136A; highest concentration assessed 37.5 μM.

Sequence of MV H and F envelope glycoproteins (P08362 whole entry): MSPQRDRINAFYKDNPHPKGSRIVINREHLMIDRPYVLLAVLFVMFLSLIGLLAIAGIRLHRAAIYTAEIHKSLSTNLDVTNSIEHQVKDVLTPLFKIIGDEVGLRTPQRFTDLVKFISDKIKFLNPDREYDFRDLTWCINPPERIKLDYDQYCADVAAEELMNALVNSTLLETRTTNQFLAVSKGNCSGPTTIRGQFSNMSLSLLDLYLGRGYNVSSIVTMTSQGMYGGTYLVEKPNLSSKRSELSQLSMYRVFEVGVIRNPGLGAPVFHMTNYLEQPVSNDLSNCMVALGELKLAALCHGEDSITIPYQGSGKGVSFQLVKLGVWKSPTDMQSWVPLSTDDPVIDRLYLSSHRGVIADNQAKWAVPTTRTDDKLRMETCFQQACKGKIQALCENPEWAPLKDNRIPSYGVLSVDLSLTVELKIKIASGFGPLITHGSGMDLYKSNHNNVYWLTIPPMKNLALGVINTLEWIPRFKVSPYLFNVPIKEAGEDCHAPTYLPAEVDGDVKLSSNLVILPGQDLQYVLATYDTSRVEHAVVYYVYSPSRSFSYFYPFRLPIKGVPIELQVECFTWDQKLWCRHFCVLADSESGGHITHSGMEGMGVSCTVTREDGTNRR
Sequence of MV H and F envelope glycoproteins (P69353 113-550): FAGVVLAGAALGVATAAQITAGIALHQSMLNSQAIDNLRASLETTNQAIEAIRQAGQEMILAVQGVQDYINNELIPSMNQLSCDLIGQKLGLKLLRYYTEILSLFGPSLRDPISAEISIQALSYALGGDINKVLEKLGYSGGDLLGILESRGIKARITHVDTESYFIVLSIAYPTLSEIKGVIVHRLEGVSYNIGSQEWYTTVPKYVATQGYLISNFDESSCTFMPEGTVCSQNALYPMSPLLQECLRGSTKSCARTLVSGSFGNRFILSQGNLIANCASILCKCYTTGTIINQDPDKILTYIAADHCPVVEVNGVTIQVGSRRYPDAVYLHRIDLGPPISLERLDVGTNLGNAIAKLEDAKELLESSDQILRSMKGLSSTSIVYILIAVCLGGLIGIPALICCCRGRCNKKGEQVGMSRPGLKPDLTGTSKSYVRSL
Sequence of MV H and F envelope glycoproteins (P69353 24-112): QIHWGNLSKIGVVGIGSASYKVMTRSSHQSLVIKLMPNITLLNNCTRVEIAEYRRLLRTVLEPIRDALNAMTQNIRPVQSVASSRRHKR

The term EC50 denotes the concentration giving half of the maximal effect. By CC50 is commonly meant the concentration that lowers cell viability or growth by half. `O=C(Cc1cccs1)Nc1nc2c(s1)CCCC2` [compound 4256670]: the EC50 with MV-Alaska (Measles morbillivirus, 96 h, read-out: EC50 (MV-Alaska)) turned out to be 2.2 ± 0.3 µM; with CDV-752 (canine distemper virus, read-out: EC50 (CDV-752)) it was 3.9 ± 0.2 µM; with HPIV3 (Human respirovirus 3, Vero, in Homo sapiens, read-out: EC50 (HPIV3)), 5.8 ± 0.6 µM; in data set [2], 22 µM; in the data set with MV-Ibd, 26.6 ± 9.3 µM. Also, the CC50 at 24 h in data set [1] is roughly 150 µM. The selectivity ratio in data set [1] worked out at 68. In addition, the “Suppression of reporter expression” value in data set [2] (at 5 μM) is reported as “did not suppress reporter expression at all”.

On to `Cc1ccc(N(Cc2ccc(C(=O)NC3CCCCC3)cc2)S(C)(=O)=O)cc1C` [compound 14722514], for which the “Activity of re-synthesized compound versus original library substance” value in the data set with MV-Alaska (biotesting of chemically re-synthesized compound, data not shown) was “essentially identical to the original substances stored in the library”. The same compound showed a CC50 with cells (24 h, absence of virus, highest concentration assessed 150 μM, averages of two experiments) of roughly 150 µM. Moreover, the “SI (CC50/EC50)” value with cells (specificity index, CC50 / EC50 against MV-Alaska) came to 214. Moreover, the “EC50 (CDV-752)” value with CDV-752 (Vero-dogSLAM cells, highest concentration assessed 37.5 μM) is on record as “no activity detected”. In the data set with HPIV3 (Vero cells, highest concentration assessed 37.5 μM), the “EC50 (HPIV3)” value is reported as “no activity detected”. Besides, the 50% effective concentration (EC50) with MV-AII-5 was determined as 3.6 ± 1.6 µM.
